Measured values published in patent US20130115178A1, “TANNING ENHANCERS AND SELF-TANNING SUBSTANCES” (MERCK PATENT GESELLSCHAFT MIT BESCHRANKTER HAFTUNG, priority 2010, published 2013).
Where “and” joins values, the source holds several entries; their conditions need not be identical. Equal values may be shown once.

Experiments:
[1] = In-vitro investigation of DHA and DHA/glucuronolactone (Liquidskin model, L-a-b values); settings: 37° C., pH 7
[2] = tested on: B16V mouse melanoma cells; test: B16 V mouse melanoma cell test (melanin concentration); assay type: cell-based; settings: for Melanin concentration %: relative to blank DMSO + α-MSH = 100%
Procedure: Description of the performance of the B16 V mouse melanoma cell test:
B16V mouse melanoma cells (manufacturer: DSMZ; Article No,: ACC370) in RPMI medium (Invitrogen, Article No.: 31870), to which 10% of FBS (foetal bovine serum, Invitrogen, Article No: 10499044), 2 mM L-glutamine (Invitrogen, Article No: 25030) and 1 mM sodium pyruvate (Invitrogen, Article No:11360) had additionally been added (modified RPMI medium), are transferred into a culture bottle and incubated at 37° C. and 5% CO2 for 72 h. The medium is separated off, and the cells are washed with 10 ml of D-PBS (Invitrogen, Article No. 14190) and subsequently filtered off with suction. 1 ml of HyQtase cell detachment solution (Hyclone, Article No. SV30030.01) is added to the cells. The bottle is swirled a number of times, and the HyQtase cell detachment solution is subsequently removed by suction. The cells are then incubated in the incubator at 37° C. and 5% CO2 for 5 min. The cells are taken up in the modified RPMI medium (Invitrogen, Article No.: 31870), and the cell count is determined. To this end, the cells are stained with Tryptan Blue and counted in a Neubauer chamber. The cells are subsequently sown out again in the modified RPMI medium in a defined cell count of 80,000 cells per well (6-well clear plate, TCT, PS (Nunc)).
The plate is subsequently incubated at 37° C. and 5% CO2 for 24 h, the medium is then removed. […]
After the final incubation period, the medium is removed by suction, and the cells are washed with 1000 μl of D-PBS (Invitrogen, Article No. 14190). […] The cell count is subsequently determined. To this end, the cells are stained with Tryptan Blue and counted in a Neubauer chamber. […] 200 μl are then pipetted as quadruple determination (per cup) into a 96-well plate (VWR, Article No. 4100636981), and the absorption at a wavelength of 405 nm is determined. […] The content of melanin can be determined in this way by means of a calibration line.
The other values were determined relative to the blank sample with dimethyl sulfoxide (DMSO) and a-MSH, whose measurement was set at 100%

[3] = tested on: explants from the stomach tissue of a pale-skinned person (type); test: Ex-vivo study: chromametric colour measurement of skin explants; parameters: species or system human; key to b / a: CIE L*a*b* colour coordinates, Minolta CR-300 chromameter, D65
Procedure: 12 explants from the stomach tissue of a pale-skinned person (type) having an average diameter of 10 mm are prepared (reference: P831-AB49).
The explants are kept in a BEM medium (B10-EC's explants medium) at 37° C. in a moist atmosphere comprising 5% of CO2.
The following samples are tested: (in each case 3 explants), where the solutions of the corresponding substances used comprise 90% of water and 10% of ethanol.
Glucuronolactone is employed in the bicyclic form.
2 μl of the respective sample are added to the explants and distributed for the first time (D0), 1 day later (D1), 2 days later (D2), 3 days later (D3) and 4 days later (D4). The colour of the explants is determined chromametrically. The measurements are carried out on addition (D0), on day 1 (D1), on day 5 (D5) and on day 11 (D11).
The colour measurements are carried out using a Minolta CR-300 Chroma-meter, and the L, a and b values are read off correspondingly on the instrument.
The following parameters are set:
A colour area is present here which is viewed at a viewing angle of 2 degrees. This viewing angle is used as standard in the chromametric measurement. • Irradiation source D65, corresponding to daylight • Region of the measurement: 3 mm • Parameters used: L*a*b*
The sample is placed on the bearing rail with the epidermis facing downwards. The irradiation is carried out from the underside through the area indicated (3 mm).
In the colorimetric determinations <<L a b>>, the L value determines the contrast of the skin. If the L value drops, the skin appears darker.
Δa after one day is calculated as follows: […]

[4] = tested on: explants from the stomach tissue of a pale-skinned person (type); test: as above; parameters: species or system human; key: change in the L*a*b* a value from D0; settings: D5 vs D0; single explants; listed as P2
[5] = D0 (on addition), single explants, n=3, listed as P2
[6] = D1, single explants, n=3, listed as P2
[7] = D5, single explants, n=3, listed as P2
[8] = D11, single explants, n=3, listed as P2

O=C(CO)CO [DHA, 1,3-dihydroxyacetone]
L ([1]; after 6 hours): 86.1 | a ([1]; after 6 hours): 13.4 | b ([1]; after 6 hours): 39.9 | L ([1]; after 24 hours): 61.3 | a ([1]; after 24 hours): 31.7 | b ([1]; after 24 hours): 75.0 | L ([1]; after one hour): 99.4 | a ([1]; after one hour): 0.4 | b ([1]; after one hour): 1.3

O=C[C@H](O)[C@H]1OC(=O)[C@@H](O)[C@H]1O [Glucuronolactone]
Melanin concentration % ([2]; 10 mM + α-MSH (10^−8 M)): 46.9% | Melanin concentration % ([2]; 10 mM, without α-MSH): 56.7% | melanin production ([2]; cell culture tests with B16V mouse melanoma cells): reduce melanin production | L [3, 5]: 64.07 and 62.49 and 62.34 | b [3, 5]: 17.1 and 17.34 and 16.15 | L [3, 6]: 65.12 and 64.59 and 62.71 | b [3, 6]: 17.81 and 17.14 and 16.29 | L [3, 7]: 62.73 and 63.62 and 63.56 | b [3, 7]: 16.51 and 16.88 and 15.95 | L [3, 8]: 64.22 and 65.7 and 62.69 | a [3, 8]: 1.87 and 2.44 and 2.65 | b [3, 8]: 14.34 and 15.04 and 15.57 | skin colour in comparison with the untreated sample ([3]; explants, glucuronolactone 1%): darkening of the skin | Δa [4]: 0.25 and 0.22 and 0.26
